# Results as given in ChEMBL document CHEMBL3885881, “DrugMatrix”.
# Species: Rattus norvegicus
# Assay: DrugMatrix - Regimen: Daily Repeat
# Assay type: toxicity, organism-based, Sprague-Dawley
# Set-up: regimen Daily Repeat, gender Male, age 6-8 weeks
# Details: in vivo, po, route oral GAVAGE, vehicle 100 % WATER; for ABSOLUTE BASOPHIL / ABSOLUTE EOSINOPHIL / ABSOLUTE LYMPHOCYTE / ABSOLUTE MONOCYTE / ABSOLUTE SEGMENTED NEUTROPHIL / BASOPHIL / EOSINOPHIL / ERYTHROCYTE COUNT / HEMATOCRIT / HEMOGLOBIN / LEUKOCYTE COUNT / LYMPHOCYTE / MEAN CORPUSCULAR HEMOGLOBIN / MEAN CORPUSCULAR HEMOGLOBIN CONCENTRATION / MEAN CORPUSCULAR VOLUME / MONOCYTE / NEUTROPHIL / NUCLEATED RED BLOOD CELLS / PLATELET COUNT: tissue Blood; for ALANINE AMINOTRANSFERASE / ALBUMIN / ALKALINE PHOSPHATASE / ASPARTATE AMINOTRANSFERASE / BLOOD UREA NITROGEN / CARBON DIOXIDE / CHLORIDE / CHOLESTEROL / CREATINE PHOSPHOKINASE / CREATININE / GLUCOSE / LACTATE DEHYDROGENASE / LIPASE / PHOSPHORUS / POTASSIUM / SODIUM / TOTAL BILIRUBIN / TOTAL PROTEIN / URIC ACID: tissue Plasma
# [1] = 3 mg/kg, 120 h, dose level Low, time 5 day
# [2] = 47 mg/kg, 72 h, dose level High, time 3 day
# [3] = 47 mg/kg, 120 h, dose level High, time 5 day
compound,measurement,setting,value
CN(C)CC[C@@H](c1ccc(Cl)cc1)c1ccccn1 [DEXCHLORPHENIRAMINE],ABSOLUTE BASOPHIL,[1],0 CELLS/uL
same,ABSOLUTE EOSINOPHIL,[1],0 CELLS/uL
same,ABSOLUTE LYMPHOCYTE,[1],15600.33 CELLS/uL
same,ABSOLUTE MONOCYTE,[1],181.67 CELLS/uL
same,ABSOLUTE SEGMENTED NEUTROPHIL,[1],884.67 CELLS/uL
same,BASOPHIL,[1],0%
same,EOSINOPHIL,[1],0%
same,ERYTHROCYTE COUNT,[1],5.61 x10E6/uL
same,HEMATOCRIT,[1],35.43%
same,HEMOGLOBIN,[1],14.3 G/DL
same,LEUKOCYTE COUNT,[1],16.67 x10E3/uL
same,LYMPHOCYTE,[1],93.67%
same,MEAN CORPUSCULAR HEMOGLOBIN,[1],25.5 pg
same,MEAN CORPUSCULAR HEMOGLOBIN CONCENTRATION,[1],40.33 G/DL
same,MEAN CORPUSCULAR VOLUME,[1],63.17 fL
same,MONOCYTE,[1],1%
same,NEUTROPHIL,[1],5.33%
same,NUCLEATED RED BLOOD CELLS,[1],0.33 /100WBC
same,PLATELET COUNT,[1],1254.33 x10E3/uL
same,ALANINE AMINOTRANSFERASE,[1],55.33 u/L
same,ALBUMIN,[1],4.17 G/DL
same,ALKALINE PHOSPHATASE,[1],407 u/L
same,ASPARTATE AMINOTRANSFERASE,[1],86.33 u/L
same,BLOOD UREA NITROGEN,[1],15 mg/dL
same,CARBON DIOXIDE,[1],32 mmol/L
same,CHLORIDE,[1],102 MEQ/L
same,CHOLESTEROL,[1],63.33 mg/dL
same,CREATINE PHOSPHOKINASE,[1],451.67 u/L
same,CREATININE,[1],0.18 mg/dL
same,GLUCOSE,[1],121.33 mg/dL
same,LACTATE DEHYDROGENASE,[1],251 u/L
same,LIPASE,[1],10.33 u/L
same,PHOSPHORUS,[1],12.1 mg/dL
same,POTASSIUM,[1],6.1 MEQ/L
same,SODIUM,[1],144.9 MEQ/L
same,TOTAL BILIRUBIN,[1],0.23 mg/dL
same,TOTAL PROTEIN,[1],6.07 G/DL
same,URIC ACID,[1],1.37 mg/dL
same,ABSOLUTE BASOPHIL,[2],0 CELLS/uL
same,ABSOLUTE EOSINOPHIL,[2],62.67 CELLS/uL
same,ABSOLUTE LYMPHOCYTE,[2],12240 CELLS/uL
same,ABSOLUTE MONOCYTE,[2],133 CELLS/uL
same,ABSOLUTE SEGMENTED NEUTROPHIL,[2],864.33 CELLS/uL
same,BASOPHIL,[2],0%
same,EOSINOPHIL,[2],0.67%
same,ERYTHROCYTE COUNT,[2],5.93 x10E6/uL
same,HEMATOCRIT,[2],38.13%
same,HEMOGLOBIN,[2],14.77 G/DL
same,LEUKOCYTE COUNT,[2],13.3 x10E3/uL
same,LYMPHOCYTE,[2],91.33%
same,MEAN CORPUSCULAR HEMOGLOBIN,[2],24.9 pg
same,MEAN CORPUSCULAR HEMOGLOBIN CONCENTRATION,[2],38.73 G/DL
same,MEAN CORPUSCULAR VOLUME,[2],64.3 fL
same,MONOCYTE,[2],1%
same,NEUTROPHIL,[2],7%
same,NUCLEATED RED BLOOD CELLS,[2],0 /100WBC
same,PLATELET COUNT,[2],1535.33 x10E3/uL
same,ALANINE AMINOTRANSFERASE,[2],44.33 u/L
same,ALBUMIN,[2],4.03 G/DL
same,ALKALINE PHOSPHATASE,[2],352 u/L
same,ASPARTATE AMINOTRANSFERASE,[2],75 u/L
same,BLOOD UREA NITROGEN,[2],14.67 mg/dL
same,CARBON DIOXIDE,[2],33.67 mmol/L
same,CHLORIDE,[2],102 MEQ/L
same,CHOLESTEROL,[2],65 mg/dL
same,CREATINE PHOSPHOKINASE,[2],246.67 u/L
same,CREATININE,[2],0.17 mg/dL
same,GLUCOSE,[2],153.67 mg/dL
same,LACTATE DEHYDROGENASE,[2],134 u/L
same,LIPASE,[2],10.67 u/L
same,PHOSPHORUS,[2],12.47 mg/dL
same,POTASSIUM,[2],6.39 MEQ/L
same,SODIUM,[2],145.23 MEQ/L
same,TOTAL BILIRUBIN,[2],0.17 mg/dL
same,TOTAL PROTEIN,[2],5.97 G/DL
same,URIC ACID,[2],1.93 mg/dL
same,ABSOLUTE BASOPHIL,[3],0 CELLS/uL
same,ABSOLUTE EOSINOPHIL,[3],0 CELLS/uL
same,ABSOLUTE LYMPHOCYTE,[3],14891.67 CELLS/uL
same,ABSOLUTE MONOCYTE,[3],0 CELLS/uL
same,ABSOLUTE SEGMENTED NEUTROPHIL,[3],875 CELLS/uL
same,BASOPHIL,[3],0%
same,EOSINOPHIL,[3],0%
same,ERYTHROCYTE COUNT,[3],6.11 x10E6/uL
same,HEMATOCRIT,[3],38.9%
same,HEMOGLOBIN,[3],14.93 G/DL
same,LEUKOCYTE COUNT,[3],15.77 x10E3/uL
same,LYMPHOCYTE,[3],94.33%
same,MEAN CORPUSCULAR HEMOGLOBIN,[3],24.47 pg
same,MEAN CORPUSCULAR HEMOGLOBIN CONCENTRATION,[3],38.37 G/DL
same,MEAN CORPUSCULAR VOLUME,[3],63.73 fL
same,MONOCYTE,[3],0%
same,NEUTROPHIL,[3],5.67%
same,NUCLEATED RED BLOOD CELLS,[3],0 /100WBC
same,PLATELET COUNT,[3],1215 x10E3/uL
same,ALANINE AMINOTRANSFERASE,[3],35.67 u/L
same,ALBUMIN,[3],4.17 G/DL
same,ALKALINE PHOSPHATASE,[3],323 u/L
same,ASPARTATE AMINOTRANSFERASE,[3],76.67 u/L
same,BLOOD UREA NITROGEN,[3],14.67 mg/dL
same,CARBON DIOXIDE,[3],30.67 mmol/L
same,CHLORIDE,[3],101.33 MEQ/L
same,CHOLESTEROL,[3],61.67 mg/dL
same,CREATINE PHOSPHOKINASE,[3],322 u/L
same,CREATININE,[3],0.13 mg/dL
same,GLUCOSE,[3],169.67 mg/dL
same,LACTATE DEHYDROGENASE,[3],202.67 u/L
same,LIPASE,[3],11 u/L
same,PHOSPHORUS,[3],12.57 mg/dL
same,POTASSIUM,[3],5.79 MEQ/L
same,SODIUM,[3],144.7 MEQ/L
same,TOTAL BILIRUBIN,[3],0.2 mg/dL
same,TOTAL PROTEIN,[3],6.33 G/DL
same,URIC ACID,[3],1.57 mg/dL
